The results in this text go back to patent US10274483B2, “Fluorescence method for sensing chlorinated disaccharides” (THE REGENTS OF THE UNIVERSITY OF CALIFORNIA, priority 2014, dated 2019).

Assay type in all cases: binding
Assay [1] in a line: oBBV-HPTS two component fluorescence assay, mannitol. The source says: (§1) Boronic acids form covalent bonds with the cis-1, 2-hydroxyl groups that are commonly found in saccharides. Based on this property, a two-component sensing system is developed, comprising a fluorescent dye that serves as the indicator unit and a boronic acid-appended viologen that serves a dual function as fluorescence quencher and saccharide receptor. Dye and viologen form a non-fluorescent ground state complex. Binding to a diol weakens the complex. Subsequent dissociation from the fluorescent dye results in an increase in fluorescence dependent on diol concentration.
(§2) Urine has been analyzed for the permeability markers sucrose (stomach), lactulose and mannitol (small intestine) and sucralose (colon). The viologen oBBV was used with the fluorophore HPTS (Exc. 420 or 485 nm, Em 535 nm). Fluorescence was measured with a benchtop plate reader. HPTS is normally read at 420/535 nm, but performs well at 485/535 nm, matching FITC filter sets normally found in clinical labs. […] Lower limit of quantification (LLOQ) and dynamic range are suitable for typical urine samples.

The nature of assay [2]: oBBV-HPTS two component fluorescence assay, Fenton-modified sucralose. Particulars: sucralose after Fenton reaction, 1 hr; sodium phosphate and HEPES buffer, 0.01% Triton-X100, pH 7.4 (FIG. 4). On the procedure:
FIG. 4 is a graph showing the results of a proof of concept experiment to measure modified sucralose after 1 hr of reaction time. This study was performed with ortho bis boronic acid viologen (oBBV) in sodium phosphate and HEPES buffer 0.1M containing 0.01% Triton-X100, pH 7.4. The fluorescence intensity is the normalized intensity where F=fluorescence intensity after saccharide addition and Fo=fluorescence intensity of the quenched reporter dye.
Developing a degradation pathway of sucralose into a saccharide that consists of the hydroxyl groups is needed for boronic acid recognition, which allows for the molecular recognition of sucralose. […]
This has been accomplished by generating hydroxyl anion and radicals via the Fenton chemical reaction (Ref 39) in the presence of sucralose, and upon reaction completion, the modified sucralose solution was tested against the oBBV-HPTS system. Using our two component system, we have confirmed that sucralose can be modified and measured by adding increasing amounts of this modified saccharide, a significant fluorescence signal was obtained.
A solution of sucralose (20 mM) in the presence of ferrous iron (II) sulfate and hydrogen peroxide was allowed to stir for 1 hour and dilutions were made to determine if a fluorescence signal can be obtained. […]

Assay [3] is described as follows: oBBV-HPTS two component fluorescence assay, sucralose. On the procedure: as §2
(§3) Developing a degradation pathway of sucralose into a saccharide that consists of the hydroxyl groups is needed for boronic acid recognition, which allows for the molecular recognition of sucralose. Sucralose contains halogenated carbons, which are easily modified via a hydroxyl anion or radical to de-chlorinate sucralose to form a detectable saccharide. Based on literature precedence, sucralose is modified through advanced oxidation photolysis to generate a fructose sugar alcohol derivative of sucrose (Ref 38). […] This has been accomplished by generating hydroxyl anion and radicals via the Fenton chemical reaction (Ref 39) in the presence of sucralose, and upon reaction completion, the modified sucralose solution was tested against the oBBV-HPTS system. Using the disclosed two component system, it is confirmed that sucralose is modified.

Assay [4] can be described thus: oBBV-HPTS two component fluorescence assay, sucrose. On the procedure: as §2, §3
Assay [5] in a line: oBBV-HPTS two component fluorescence assay, lactulose.
Text: as §1, §2

Setting [6] is: fluorophore HPTS, urine, Exc. 420 or 485 nm, Em 535 nm (FIG. 3).

Each structure is given as a SMILES string.

As to `OB(O)c1ccccc1C[n+]1ccc(-c2cc[n+](Cc3ccccc3B(O)O)cc2)cc1.[Br-].[Br-]` [oBBV, 4,4′-N,N′-bis-(benzyl-2-boronic acid)-dipyridinium dibromide], in assay [1] (setting [6]), the sensitivity to mannitol entry is reported as “good sensitivity”. In addition, in assay [1] (urine (FIG. 3)), the “de-quenching of HPTS fluorescence in the presence of mannitol” value was “selectively de-quenched”. In addition, the “fluorescence signal on adding increasing amounts of modified sucralose” value in assay [2] is listed as “increase in fluorescence signal”. Also, the “fluorescence signal with sucralose” value in assay [3] (unmodified, tested in parallel with modified sucralose (FIG. 4)) is “no obtainable signal”. For the same compound, the “de-quenching of HPTS fluorescence in the presence of sucralose” value in assay [3] (urine (FIG. 3)) is listed as “not”. In addition, in assay [4] (tested in parallel with modified sucralose (FIG. 4)), the “fluorescence signal with sucrose” value is reported as “no obtainable signal”. Further, the “de-quenching of HPTS fluorescence in the presence of sucrose” value in assay [4] (urine (FIG. 3)) is listed as “not”. Besides, the sensitivity to lactulose result in assay [5] (setting [6]) is listed as “greatest preferential sensitivity”. In assay [5] (urine (FIG. 3)), the “de-quenching of HPTS fluorescence in the presence of lactulose” value is “selectively de-quenched”.
